Reference: ChEMBL document CHEMBL1143229, “PB183, a sigma receptor ligand, as a potential PET probe for the imaging of prostate adenocarcinoma” (Bioorg Med Chem Lett, 2008)

How the values were obtained:
[1] = target: Sigma non-opioid intracellular receptor 1 (Mus musculus, UniProt O55242); assay: Displacement of (+)-[3H]pentazocine from mouse sigma 1 receptor in TRAMP cell membrane; format: cell membranes
[2] = Displacement of [3H]DTG from mouse sigma-2 receptor in TRAMP cell membrane; format: cell membranes
[3] = Cytotoxicity against mouse TRAMP cells; format: functional, cell-based
[4] = Apparent permeability from apical to basolateral side of human Caco-2 cell membrane at pH 7.4 after 21 days; format: ADME, cell-based; details: Caco-2, pH 7.4
[5] = Antiproliferative activity against mouse TRAMP cells; format: functional, cell-based
[6] = Selectivity for sigma 2 receptor over sigma 1 receptor

Sequence of Sigma non-opioid intracellular receptor 1 (O55242 whole entry): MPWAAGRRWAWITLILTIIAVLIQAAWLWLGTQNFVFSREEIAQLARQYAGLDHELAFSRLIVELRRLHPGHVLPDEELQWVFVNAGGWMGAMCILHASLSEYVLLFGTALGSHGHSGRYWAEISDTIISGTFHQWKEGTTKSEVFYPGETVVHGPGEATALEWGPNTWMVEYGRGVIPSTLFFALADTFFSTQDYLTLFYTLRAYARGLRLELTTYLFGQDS

## COc1cccc2c(CCCN3CCN(C4CCCCC4)CC3)cccc12
[1]
  Ki: 0.0065 µM
[2]
  Ki: 0.0005 µM
[3]
  EC50: 26.6 µM
[4]
  Papp A→B: 6.3 ×10⁻⁶ cm/s
[5]
  EC50: 16.9 µM

## COc1cccc2c1CCCC2CCCN1CCN(C2CCCCC2)CC1 (stereo unspecified)
[6]
  Selectivity ratio: 40
